Laboratory results from ChEMBL document CHEMBL1151068, “Rollimembrin, a novel acetogenin inhibitor of mammalian mitochondrial complex I” (Bioorg Med Chem Lett, 1997).
pIC50: −log10 of the molar value.

These compounds were tested against Mitochondrial complex I; NADH oxidoreductase (Bos taurus, UniProt P25708+P52505) (assay: Concentration required for the inhibition of NADH oxidase in submitochondrial particles from beef heart).
Mitochondrial complex I; NADH oxidoreductase, sequence (P25708 21-464 limits assumed, other chains not shown): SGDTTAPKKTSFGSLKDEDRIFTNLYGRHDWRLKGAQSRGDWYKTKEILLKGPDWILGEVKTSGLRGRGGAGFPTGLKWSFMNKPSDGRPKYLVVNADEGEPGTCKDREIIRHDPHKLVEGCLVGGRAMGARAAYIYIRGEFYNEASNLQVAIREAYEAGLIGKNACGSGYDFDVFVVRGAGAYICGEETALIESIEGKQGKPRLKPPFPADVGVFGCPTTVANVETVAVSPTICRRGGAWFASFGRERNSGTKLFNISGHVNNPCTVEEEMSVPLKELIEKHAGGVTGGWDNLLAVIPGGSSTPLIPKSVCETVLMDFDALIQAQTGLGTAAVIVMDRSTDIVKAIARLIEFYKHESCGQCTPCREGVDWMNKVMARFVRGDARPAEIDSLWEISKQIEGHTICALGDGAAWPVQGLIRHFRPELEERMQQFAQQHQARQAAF
Format: protein-complex assay
In the case of `CCCCCCCCCC[C@H](O)[C@H]1CC[C@@H]([C@@H]2CC[C@H]([C@H](O)CCCCCCCC[C@@H](O)CC3=C[C@@H](C)OC3=O)O2)O1`, the pIC50 was 9.48.
In the case of `CCCCCCCCCC[C@H](O)[C@H]1CC[C@@H]([C@@H]2CC[C@H]([C@H](O)CCCCCCCCCCCCC3=C[C@@H](C)OC3=O)O2)O1`, the pIC50 was 9.24.
With `CCCCCCCCCC[C@H](O)[C@H]1CC[C@@H]([C@@H]2CC[C@H]([C@H](O)CCCCCCCCCC[C@@H](O)CC3=C[C@@H](C)OC3=O)O2)O1` the pIC50 was 9.24.
